From patent US20240116946A1 (Gilead Sciences, Inc., priority 2022, published 2024)
Like-named read-outs stand apart in the source and are kept apart here.

Assays:
[1] = target: recombinant SARS-CoV-2 Main protease (Mpro) (Severe acute respiratory syndrome coronavirus 2 (2019-nCoV) (SARS-CoV-2), UniProt P0DTD1); assay: Cov Mpro Biochemical IC50 Assay; conditions: read-out: MPro IC50
[2] = tested on: SARS-CoV-2-NLuc; assay: microbe, parasite or virus in culture; assay type: cell-based, SARS Coronavirus 2
[3] = recombinant SARS-CoV-2 Mpro 7.5 nM, fluorogenic peptide substrate 40 μM
[4] = Severe acute respiratory syndrome coronavirus, 48 h, read-out: MPro EC50
[5] = recombinant SARS-CoV-2 Mpro, fluorogenic peptide substrate
[6] = Severe acute respiratory syndrome coronavirus, 48 h; read-out: MPro EC50

| Compound | IC50 [1, 3] [nM] | EC50 [2, 4] [nM] | IC50 [1, 5] [nM] | EC50 ([2]; read-out: MPro EC50) [nM] | EC50 [2, 6] [nM] |
| --- | --- | --- | --- | --- | --- |
| COc1ccc(Cl)c(-c2cc3[nH]c(=O)n(-c4cncc5ccc(N6CCn7c(nnc7C(F)(F)F)C6)cc45)c(=O)c3s2)c1 [Example 603] | 2.75 | 14.6 |  |  |  |
| COc1cc(-c2cc3[nH]c(=O)n(-c4cncc5cc(C(=O)N6CCOCC6)sc45)c(=O)c3s2)c(Cl)cc1F [Example 649] | 7.91 | 195 |  |  |  |
| Cc1cc(-c2cccc(Cl)c2-c2ccc3c(=O)n(-c4cncc5ccccc45)c(=O)[nH]c3c2)cc(C)n1 [Example 208] |  | 4.21 | 7.56 |  |  |
| O=c1[nH]c2cc(-c3c(Cl)cccc3-c3cncc(C(F)(F)F)c3)ccc2c(=O)n1-c1cncc2ccccc12 [Example 206] |  | 20.6 | 42.4 |  |  |
| COc1ccc(Cl)c(-c2cc3[nH]c(=O)n(-c4cncc5ccc(N6CCn7cc(C(F)(F)F)nc7C6)cc45)c(=O)c3s2)c1 [Example 610] | < 2.54 | 13.9 |  |  |  |
| O=c1[nH]c2cc(-c3ccccc3Cl)sc2c(=O)n1-c1cncc2ccccc12 (single isomer, unassigned) [Example 151, 6-(2-chlorophenyl)-3-(isoquinolin-4-yl)thieno[3,2-d]pyrimidine-2,4(1H,3H)-dione] |  |  | < 2.54 | 1.73 |  |
| Cc1noc(C)c1-c1cc2[nH]c(=O)n(-c3cncc4cnn(C)c34)c(=O)c2s1 [Example 805] | 701 |  |  |  | > 1000 |
| Cc1cnnc(-n2c(=O)c3sc(-c4ccccc4C#N)cc3n(CCC#N)c2=O)c1 [Example 813] | 32.5 |  |  |  | 362 |
| O=c1[nH]c2cc(-c3ccccc3Cl)sc2c(=O)n1-c1cncc2cccnc12 [Example 133, 6-(2-chlorophenyl)-3-(1,6-naphthyridin-8-yl)thieno[3,2-d]pyrimidine-2,4(1H,3H)-dione] |  | 27.7 | 12.8 |  |  |
| NC(=O)COc1cccc(Cl)c1-c1ccc2c(=O)n(-c3cncc4ccccc34)c(=O)[nH]c2c1 [Example 91] |  | 1140 | 216 |  |  |
| COc1cc(-c2cc3c(s2)c(=O)n(-c2cncc4cnn(CC(F)F)c24)c(=O)n3CCC#N)c(Cl)cc1F [Example 911] | 13.2 | 11.8 |  |  |  |
| Cc1cncc(-n2c(=O)[nH]c3cc(-c4ccccc4Cl)ccc3c2=O)c1OCC(F)(F)F [Example 374] |  | 1240 | 1130 |  |  |
| COc1ccc(C#N)c(-c2cc3[nH]c(=O)n(-c4cncc5nc(C67CC(F)(C6)C7)n(C)c45)c(=O)c3s2)c1 [Example 437] | 535 | 10600 |  |  |  |
| COc1ccc(Cl)c(-c2cc3[nH]c(=O)n(-c4cncc5ccccc45)c(=O)c3cc2F)c1 [Example 211] |  |  | 55.5 |  | 70.4 |
| COc1cc(-c2cc3c(s2)c(=O)n(-c2cncc4c2c(C)nn4C)c(=O)n3CCC#N)c(Cl)cc1F [Example 925, 3-(6-(2-chloro-4-fluoro-5-methoxyphenyl)-3-(1,3-dimethyl-1H-pyrazolo[3,4-c]pyridin-4-yl)-2,4-dioxo-3,4-dihydrothieno[3,2-d]pyrimidin-1(2H)-yl)propanenitrile] | 6.13 | 6.55 |  |  |  |
| COc1cc(-c2cc3c(s2)c(=O)n(-c2cncc4cccnc24)c(=O)n3CC#N)c(Cl)cc1F [Example 708] | 4.41 | 8.71 |  |  |  |
| Cc1cc(-c2cccc(Cl)c2-c2ccc3c(=O)n(-c4cncc5ccccc45)c(=O)[nH]c3c2)cc(C#N)n1 [Example 317] |  | 4.97 | 11 |  |  |
| O=c1[nH]c2cc(-c3c(Cl)cccc3-c3cncc(F)c3)ccc2c(=O)n1-c1cncc2ccccc12 [Example 207] |  | 13.6 | 17.6 |  |  |
| COc1cc(-c2cc3[nH]c(=O)n(-c4cncc5ccccc45)c(=O)c3s2)c(Cl)cc1C [Example 341] |  | 4.62 | 5.44 |  |  |
| N#Cc1ccc(Cl)c(-c2ccc3c(=O)n(-c4cncc5ccccc45)c(=O)[nH]c3c2)c1 [Example 182] |  | 90 | 45.1 |  |  |
